According to US12076307B2, “Compositions for prevention or treatment of acute radiation syndrome and other radiation exposure” (priority 2017, dated 2024):
Read-outs that look alike come from different tables or passages of the source.

Legend:
[1] = Whole-body autoradiography of rats after single oral [14C]EC-18; type: in vivo, rat; details: 200 mg/kg oral
Description: Male albino rats in fasted conditions were administered a single dose of [^14C]EC-18 (oral dose of 200 mg/kg, vehicle: olive oil). The distribution and levels of radioactivity in the body were observed by whole-body autoradiography performed at 0.25, 1, 8, and 24 hrs after [^14C]EC-18 administration.

[2] = test system: ICR mice; experiment: CNS function in mice (Irwin test); type: in vivo, mouse; details: single oral doses up to 2000 mg/kg; 4 hrs
[3] = Pathway of excretion in rats after single oral [14C]EC-18; type: in vivo, rat; details: 50 mg/kg oral, 50 mg/kg
Description: To assess the routes of EC-18 excretion, male rats were administered a single dose of [^14C]EC-18 (oral dose of 50 mg/kg), after which, radioactive concentrations were measured in urine, feces, and exhaled air in the chamber of the animals for 168 hrs, and in the body after the autopsy.

[4] = test system: Beagle dog; experiment: Cardiovascular function in conscious dogs; type: in vivo; details: doses up to 2000 mg/kg
Description: CA was administered to one unanesthetized and unrestrained telemetered male Beagle dog and EC-18 (500, 1000, or 2000 mg/kg) was administered to each of three unanesthetized and unrestrained telemetered male Beagle dogs (1:1:1:1) weekly for 4 weeks. Cardiovascular effects were evaluated based on the behavioral observations, BP, HR, and ECG, from 1-hr pre-dose to 24-hr post-dose.

[5] = test system: Beagle dog; experiment: Repeated dose toxicity, Beagle dog; type: in vivo; details: Oral
Source text: (§1) Various toxicology studies have been performed. All studies were GLP-compliant unless otherwise noted.

[6] = Repeated dose toxicity, Beagle dog; type: in vivo; details: Beagle, dog, in vivo, Oral
Source text: as §1

[7] = test system: SD rat; experiment: Fertility and early embryonic developmental toxicity study; type: in vivo; details: Oral; 0, 500, 1000, 2000 mg/kg
Source text: as §1

[8] = as above; type: in vivo, rat; details: both sexes, SD, rat, in vivo; both males and females
Source text: as §1

[9] = test system: Sprague Dawley rats; experiment: Respiratory function in rats; type: in vivo, rat; details: single oral doses up to 2000 mg/kg
Description: EC-18 was orally administered to Sprague Dawley rats (n=6 males/group) at single doses of 0, 500, 1000 and 2000 mg/kg. Tidal volume, respiration rate per minute and minute volume were measured with whole-body plethysmograph at 0 (pre-dose), 1, 2 and 4-hr post-dose.

[10] = test system: Chinese hamster lung cells (CHL/IU); experiment: Chromosomal aberration test; type: cell-based; details: 6 and 24 hrs; with or without metabolic activation
Source text: as §1

[11] = test system: CYP1A2; type: in vitro ADME, human; details: for Enzyme Activity CYP1A2: n=3

CCCCC/C=C\C/C=C\CCCCCCCC(=O)OC(COC(C)=O)COC(=O)CCCCCCCCCCCCCCC (stereo not drawn) [EC-18, 1-palmitoyl-2-linoleoyl-3-acetylglycerol]
time to elimination [1]: ≤ 24 h | CNS function (Irwin test) [2]: did not affect the CNS function | Cumulative Radioactive Concentration Relative to the Administered Dose, Exhaled Air ([3]; 0-24 hr): approximately 71% | Cumulative Radioactive Concentration Relative to the Administered Dose, Feces ([3]; 0-24 hr): ~3% | Cumulative Radioactive Concentration Relative to the Administered Dose, Total ([3]; 0-24 hr): approximately 76% | Cumulative Radioactive Concentration Relative to the Administered Dose, Urine ([3]; 0-24 hr): ~2% | Cumulative Radioactive Concentration Relative to the Administered Dose, Exhaled Air ([3]; 0-72 hr): ~77% | Cumulative Radioactive Concentration Relative to the Administered Dose, Feces ([3]; 0-72 hr): ~4% | Cumulative Radioactive Concentration Relative to the Administered Dose, Total ([3]; 0-72 hr): approximately 83% | Cumulative Radioactive Concentration Relative to the Administered Dose, Urine ([3]; 0-72 hr): ~2% | Cumulative Radioactive Concentration Relative to the Administered Dose, Cadaver ([3]; 0-168 hr): approximately 10% | Cumulative Radioactive Concentration Relative to the Administered Dose, Exhaled Air ([3]; 0-168 hr): ~79% | Cumulative Radioactive Concentration Relative to the Administered Dose, Feces ([3]; 0-168 hr): ~4% | Cumulative Radioactive Concentration Relative to the Administered Dose, Total ([3]; 0-168 hr): ~96% | Cumulative Radioactive Concentration Relative to the Administered Dose, Urine ([3]; 0-168 hr): ~2% | cardiovascular effects (behavior, BP, HR, ECG) [4]: no cardiovascular effects | mortality ([5]; 2 weeks, 0, 500, 1000, 2000 mg/kg): No dead animals | findings ([5]; 2 weeks, males and females in 1000 and 2000 mg/kg dose groups): Grayish stool observed | mortality ([5]; 4 weeks (2-week recovery)): No dead animals | findings ([5]; 4 weeks (2-week recovery), drug administration groups): Grayish stool observed | findings (soft stool and grayish stool; early diarrhea; no toxicological significance) ([5]; 9 months (4-week recovery)): Dose-dependent soft | mortality ([5]; 9 months (4-week recovery)): No dead animals | findings (grayish stool observed) ([5]; 13 weeks (4-week recovery)): Dose-dependent grayish | mortality ([5]; 13 weeks (4-week recovery)): No dead animals | NOAEL at 2 weeks ([6]; 2 weeks): > 2000 mg/kg/day | NOAEL at 4 weeks ([6]; 4 weeks (2-week recovery)): > 2000 mg/kg/day | NOAEL at 9 months ([6]; 9 months (4-week recovery)): 2000 mg/kg/day | NOAEL at 13 weeks ([6]; 13 weeks (4-week recovery)): > 2000 mg/kg/day | mortality [7]: No dead animals | NOAEL [8]: 2000 mg/kg/day | respiratory function [9]: did affect the respiratory function | inducible effects on chromosomal aberration [10]: EC-18 didn't have | Enzyme Activity CYP1A2 ([11]; 1 μM): 0.33 ± 0.04 pmol/106 Cells/Min | Enzyme Activity CYP1A2 ([11]; 10 μM): 0.38 ± 0.06 pmol/106 Cells/Min | Enzyme Activity CYP1A2 ([11]; 100 μM): 0.33 ± 0.04 pmol/106 Cells/Min | potential to induce CYP1A2 ([11]; up to 100 μM): no potential to induce
